Source: ChEMBL document CHEMBL1914382, “Fragment based discovery of a novel and selective PI3 kinase inhibitor” (Bioorg Med Chem Lett, 2011)

Assays:
[1] = Permeability of the compound by PAMPA; type: ADME; settings: read-out: permeability
[2] = Metabolic stability in rat liver microsomes; type: ADME, Microsome; settings: read-out: Stability
[3] = Metabolic stability in human liver microsomes; type: ADME, Microsome; settings: read-out: Stability

## CC(=O)Nc1cn2cc(/C=C3\SC(=O)NC3=O)ccc2n1
[1]
  Papp: 13.6 ×10⁻⁶ cm/s
[2]
  microsomal CLint: 15 µL/min/mg
[3]
  microsomal CLint: 10 µL/min/mg
